pIC50, pKd: −log10 of the molar value.
Tests used:
[1] = target: T1, Growth factor receptor-bound protein 2 (Homo sapiens, UniProt P62993); experiment: In vitro binding affinity for Grb2 SH2 domain
MDA-MB-453 = experiment: Inhibition of growth-factor-stimulated MDA-MB-453 breast cancer cell proliferation; type: functional, cell-based; settings: Homo sapiens
[2] = target: T1, Growth factor receptor-bound protein 2; experiment: Inhibition of Grb2 SH2 domain binding to erbB-2
[3] = target: T1, Growth factor receptor-bound protein 2; experiment: In vitro binding affinity in whole cells for Grb2 SH2 domain; type: cell-based
[4] = target: T1, Growth factor receptor-bound protein 2; experiment: In vitro binding affinity in extracellular ELISA-based assay for Grb2 SH2 domain

T1 sequence (P62993 whole entry, the tested form may be a part): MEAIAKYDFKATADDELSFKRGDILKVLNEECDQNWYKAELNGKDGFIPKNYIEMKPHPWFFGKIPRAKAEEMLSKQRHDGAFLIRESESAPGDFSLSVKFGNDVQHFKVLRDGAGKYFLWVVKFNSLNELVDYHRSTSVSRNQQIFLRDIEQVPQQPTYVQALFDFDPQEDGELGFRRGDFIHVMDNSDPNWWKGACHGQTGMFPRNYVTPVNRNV

**Q.** Which results are given for `Cc1ccc2c(ccn2C[C@@H]2C/C=C/[C@H](c3ccc(CP(=O)(O)O)cc3)[C@H](CC(=O)O)C(=O)NC3(CCCCC3)C(=O)N[C@@H](CC(N)=O)C(=O)NC2)c1` [listing 1 of 2 here]?
**A.** pKd [1]: 10.03; pIC50 (MDA-MB-453): 6.22; pIC50 [2]: ≥ 8.00

**Q.** With `Cc1ccc2c(ccn2C[C@@H]2C/C=C/[C@H](c3ccc(CP(=O)(O)O)cc3)[C@H](CC(=O)O)C(=O)NC3(CCCCC3)C(=O)N[C@@H](CC(N)=O)C(=O)NC2)c1` [listing 2 of 2 here] as the compound, how does the pKd [1] read?
**A.** 10.12

**Q.** How did the pIC50 [3] turn out when `NC(=O)C[C@@H]1NC(=O)C2(CCCCC2)NC(=O)C[C@@H](c2ccc(CP(=O)(O)O)cc2)/C=C/C[C@@H](Cc2cccc3ccccc23)CNC1=O` was run?
**A.** ≤ 5.00

**Q.** How did the pIC50 [3] turn out when `NC(=O)C[C@@H]1NC(=O)C2(CCCCC2)NC(=O)[C@@H](CC(=O)O)[C@@H](c2ccc(CP(=O)(O)O)cc2)/C=C/C[C@@H](Cc2cccc3ccccc23)CNC1=O` was run?
**A.** ≥ 6.00

**Q.** What about the pIC50 [4] of the same compound?
**A.** 8.70

— ChEMBL document CHEMBL1137084, “Synthesis of a 5-methylindolyl-containing macrocycle that displays ultrapotent Grb2 SH2 domain-binding affinity” (J Med Chem, 2004)
